Source: PMC8443589, “Modelling human liver fibrosis in the context of non-alcoholic steatohepatitis using a microphysiological system” (Communications Biology, 2021)
Values joined by “and” are separate entries in the source; they are usually repeats but may differ in a detail not shown here. Equal values may be shown once.

Key:
[1] = tested on: NASH liver microtissues (PHH, KC and HSC co-cultures); assay: Metabolic turnover (T1/2) in NASH liver microtissues in the MPS platform, LC-MS/MS; format: in vitro ADME, human; settings: 1 µM, 48 hours
Method: (§1) Despite many on-going clinical trials, there is still no approved treatment for NASH, but emerging data provide confidence that NASH is a pharmacologically responsive disease. […] First, we set out to determine an optimal dosing strategy for each of the treatments based on an assessment of their physicochemical properties and pharmacokinetic behaviour within the MPS device (Table 1). Non-specific binding to the MPS device was determined after a 72 h incubation with each candidate drug at 1 μM (Table 1). Both candidate drugs were calculated to have less than 0.1% loss as a consequence of non-specific binding to the MPS device (Table 1). […] Because the hepatocytes within the MPS device are metabolically competent, we evaluated the half-life for each candidate drug in NASH microtissues.
(§2) To determine the metabolic turnover of obeticholic acid and elafibranor in the MPS platform, both compounds were incubated with liver microtissues for 48 h starting at 1 µM and media samples taken at regular intervals (AdooQ Bioscience, UK). The presence of each compound in the cell culture medium was quantified by liquid chromatography-tandem mass spectrometry (LC-MS/MS). Samples were separated using a Waters Acquity UPLC system with an ACE Excel C18-AR column and analysed on a Waters TQ-S Micro mass spectrometer against quantitative standard curves. Both compounds were also assessed for protein binding in HEP-Fat media using rapid equilibrium dialysis (RED) and quantified using the same LC-MS/MS methodology.
(§3) Supplemental Figure 5 – Obeticholic acid and Elafibranor are metabolised in the NASH MPS model.
(§4) The metabolism of a) Elafibranor and b) Obeticholic acid and was assessed in PHH, KC and HSC co-cultures grown in the liver MPS platform for 7 days. Following a double media exchange the compounds were incubated with the microtissues at a starting concentration of 1 µM and media samples taken at regular intervals across 48 hours. Media samples were assessed for the concentration of compound by quantitative LC-MS.
(§5) (1 picture or pasted object on this page, not shown here)

[2] = as above; format: in vitro ADME, human; settings: human, NASH liver microtissues grown 7 days, medium sampled across 48 h
Method: as §1, §2, §3, §4, §5

human NASH patients = settings: cited from earlier work
[3] = tested on: liver MPS NASH model + TGFβ (PHH, KC and HSC co-cultures, high fat); assay: Quantitative confocal imaging of collagen-1 and α-SMA in liver MPS NASH model with TGFβ (Fig 6c); format: cell-based, human; settings: for Collagen 1 - fluroscence intensity / aSMA - fluroscence intensity: NASH + TGF, individual replicates; for reduction in collagen-1 deposition / reduction in α-SMA expression: NASH + TGFβ, highest concentrations
Text: The systems biology approach identified TGFβ to be a key driver in creating a more advanced NASH phenotype in the MPS model, with enhanced fibrotic markers and reduced liver function. […] Therefore, we explored how effective pharmacological intervention would be for NASH microtissues with high NPC numbers supplemented with TGFβ and exposed them to varying concentrations of OCA and ELF QD as previously described (Supp. Fig. 6a). […] OCA had the greatest effect on IL-1Rα whereas ELF had the greatest effect on MCP-1 reflecting the fact that while both candidate drugs have anti-inflammatory properties, but their mechanisms of action are different. […] Finally, we used our quantitative fibrosis imaging assay to assess the effect of each candidate drug on collagen-1 deposition and α-SMA expression (Fig. 6c). […] Both candidate drugs caused a significant reduction in collagen-1 deposition and α-SMA expression, with the highest concentrations of OCA and ELF causing an 80% reduction in α-SMA expression and a 75% reduction in collagen-1 deposition (Fig. 6c).
Fig. 6 Using enhanced liver MPS NASH model with TGFβ, Obeticholic acid and Elafibranor modulate disease phenotype to a greater extent than in standard NASH model. PHH, KC and HSC co-cultures were cultured in the MPS platform under high-fat conditions and dosed with varying concentrations of Obeticholic acid (OCA) and Elafibranor (ELF) QD or vehicle control for 10 days, following an initial 4-day pre-culture phase. Throughout the compound dosing period TGFβ was also dosed onto all microtissues (NASH only vehicle control samples were also included in the study for comparison, which were not treated with TGFβ or dosed with any compound). a The secreted cytokine profile from treated liver microtissues was compared to determine the effects of each compound on the inflammatory profile of the liver with samples analysed at day 8 and 14 of the culture. Data were normalised by Z-transformation to allow comparison of all analytes (white = undetected). b The expression of fibrosis-associated biomarkers was analysed on day 14 media samples and compared to NASH + TGFβ control samples. c Liver microtissues were stained for collagen-type I, α-SMA, nuclei (DAPI), phalloidin (green) and imaged by confocal microscopy. Representative images are shown and scale bars 200 µm. Staining of microtissues was quantified by measuring total fluorescence intensity throughout individual microtissues, each data point represents an average of all microtissues per MPS culture (min 8, max 20). All datapoints shown with error bars highlighting means ± SD, all data from a minimum of three independent cultures: all comparisons were made to NASH + TGFβ control samples.
To visualise fibrosis proteins in the liver microtissues, scaffolds were fixed for 15 min in 4% paraformaldehyde following culture in the MPS platform. They were permeabilized with 0.1% Triton-X and blocked with 2% BSA before staining overnight at 4 °C with antibodies against alpha SMA (Abcam, UK - ab7817) and collagen 1 (Rockland, USA—600 401 103 0.5). Scaffolds were then stained with fluorescently conjugated secondary antibodies (Alexa-Fluor 555 goat anti-rabbit #A21429; Alexa-Fluor 647 donkey anti-rabbit #A31573; Alexa-Fluor 555 goat anti-mouse #A21424; Alexa-Fluor 647 goat anti-mouse #A21235 (Thermofisher, UK) along with Phalloidin 488 (Thermofisher, UK) and Hoechst 33342 (Invitrogen) for 1.5 h at room temperature. Scaffolds were washed three times with PBS and mounted onto glass microscope slides with anti-fade mounting medium. Confocal fluorescent images of the stained scaffolds were captured using a Cell Voyager 7000 (CV700, Yokogawa Inc.) automated confocal microscope. Image acquisition was controlled using the SearchFirst functionality of the Wako Software suite (Fujifilm Wako Automation). A workflow was designed to automatically locate and acquire images of each scaffold in a consistent and unbiased manner (Supp. Fig. 1). […]

## CC[C@H]1[C@@H](O)[C@@H]2[C@H](CC[C@]3(C)[C@@H]([C@H](C)CCC(=O)O)CC[C@@H]23)[C@@]2(C)CC[C@@H](O)C[C@@H]12 [Obeticholic acid]
[1]
  metabolism in the NASH MPS model: metabolised
[2]
  half-life at 1 µM: 12 h
Human NASH patients; 18-month interim analysis
  NASH resolution in phase 3 trial: did not reach statistical significance
  liver fibrosis in phase 3 trial: improved liver fibrosis
[3]; 0.25 uM, listed as OCA
  Collagen 1 - fluroscence intensity: 1951.11 and 3372.52 and 2271.93
  aSMA - fluroscence intensity: 697.585 and 1188.53 and 484.974
[3]; 5 uM, listed as OCA
  Collagen 1 - fluroscence intensity: 1987.74 and 1316.74 and 1611.55
  aSMA - fluroscence intensity: 480.346 and 350.765 and 416.589
[3]; 12.5 uM, listed as OCA
  Collagen 1 - fluroscence intensity: 1674.28 and 412.802 and 1126.69
  aSMA - fluroscence intensity: 287.458 and 39.7737 and 104.277
[3]
  reduction in collagen-1 deposition: 75%
  reduction in α-SMA expression: 80%

## TGFβ: recombinant TGF beta 1 protein (Abcam), 1 ng/ml cue
[3]; NASH microtissues, high NPC
  collagen-1 and α-SMA signal, fat and TGFβ compared to just fat alone: significant increase

## CSc1ccc(C(=O)/C=C/c2cc(C)c(OC(C)(C)C(=O)O)c(C)c2)cc1 [Elafibranor]
[1]
  metabolism in the NASH MPS model: metabolised
[2]
  half-life at 1 µM: 16 h
Human NASH patients; 120 mg
  NASH resolution, post-hoc analysis of the GOLDEN-505 phase 2b trial: significant effect on NASH resolution
Human NASH patients; 16-month interim analysis
  NASH resolution and fibrosis improvement in phase 3 trial: did not reach statistical significance
[3]; 1.3 uM, listed as ELF
  Collagen 1 - fluroscence intensity: 1733.28 and 2118.75 and 2931.26
  aSMA - fluroscence intensity: 730.875 and 499.771 and 815.833
[3]; 13 uM, listed as ELF
  Collagen 1 - fluroscence intensity: 1948.99 and 2325.43
  aSMA - fluroscence intensity: 408.818 and 783.286
[3]; 65 uM, listed as ELF
  Collagen 1 - fluroscence intensity: 815.347 and 1263.35 and 1286.58
  aSMA - fluroscence intensity: 106.491 and 171.359 and 165.195
[3]
  reduction in collagen-1 deposition: 75%
  reduction in α-SMA expression: 80%
